Patent US20230270764A1, “COMPOSITION COMPRISING CANNABINOIDS, TERPENES, AND FLAVONOIDS FOR TREATING DEPRESSION” (priority 2020, published 2023)
Where two headings read alike, the source gives them in different places.

Experiments:
BV2 microglial cells = assay: LPS-induced TNFα secretion by BV2 microglia cell cultures (ELISA); assay type: cell-based, murine; details: for levels of TNFα compared to cultures treated with vehicle and LPS: 24-hours incubation, CBD 10 but not 1 µM, linalool 100 but not 25 µM, kaempferol dose-dependently at 10, 25 and 50 µM, quercetin 10 and 25 but not 5 µM; for IC50: Mus musculus
Description: The BV2 murine microglial cell line is used in these studies.
The BV2 cells are cultured at 37° C. in a humidified atmosphere with 5% CO2 in high D-glucose (4.5 g/L) Dulbecco’s modified Eagle’s medium (Sigma, Rehovot, Israel) supplemented with 5% heat-inactivated fetal bovine serum, streptomycin (100 µg/ml), and penicillin (100 units/ml) and sodium pyruvate (1 mM; all from Biological Industries Ltd., Kibbutz Beit Haemek, Israel). 24 hours before experiments with LPS stimulation, the BV2 cells are split into 24 well plates, 2×10^5 cells per well, covered with 1 ml of growth medium and allowed to attach overnight. 24 hr before experiments with α-synuclein, the BV2 cells are split into 96-well plates, 50,000 (5×10^4) cells per well, covered with 200 µl of growth medium and allowed to attach overnight. Cultures of BV2 microglia cells are first treated by an individual cannabinoid, or terpene or flavonoid selected from: Cannabidiol (CBD), Δ-9-tetrahydrocannabinol (THC), Δ-8-tetrahydrocannabinol (THC), cannabigerol (CBG), cannabichromene (CBC), cannabigerolic acid (CBGA), Cannabidiolic acid (CBDA), THC acid (THCA), cannabichromenic Acid (CBCA), Cannabidivarin (CBDV), tetrahydrocannabivarin (THCV), Cannabichromevarin (CBCV), Cannabichromerocin ([…]), Cannabivarin (CBV), Cannabicitran (CBT), Cannabinol (CBN), Cannabicyclol (CBL), Cannabigerorcin (CBGO), Cannabinodiol (CBND), β-caryophyllene, β-elemene, β-myrcene, linalool, α-pinene, β-pinene, eucalyptol, alpha-terpineol, valencene, geraniol (lemonol), bisabolol, nerolidol, ocimene, terpinolene, humulene, α-terpinene, camphene, fenchol, α-phellandrene, Δ3-carene, γ-cardinene, sabinene, limonene, β-amyrin, cycloartenol, cannflavin A, cannflavin B, kaempferol, quercetin, luteolin, apigenin, canniprene, orientin, β-sitosterol, vitexin, isovitexin, and chrysin. Additional cultures of BV2 microglia cells are treated by an individual cannabinoid, with at least one additional cannabinoid, and/or terpene, and/or flavonoid, and/or celecoxib. Additional cultures are exposed to the vehicle of these compounds (cremophor, ethanol and PBS, 1:1:18 (v/v/v)) (FIG. 2A). In some studies, cultures of BV2 microglia cells are treated by a specific whole plant cannabis extract, with or without supplementation with cannabinoid(s), and/or terpene(s) and/or flavonoid(s), and/or celecoxib (FIG. 2B).
For each individual cannabinoid mentioned above, 3-4 concentrations are used, ranging from 0.1 to 10 µM. For ultra-low dose Δ9-THC the concentration used is 0.01 µM. […] For celecoxib, 3-4 concentrations are used, ranging from 0.1 to 10 µM. Two hours following the treatment, the cultures are exposed to one of the following microglia stimulators: LPS (Sigma L2630; Escherichia coli serotype O111:B4) is dissolved in D-PBS (Sigma, D8537) to a pre-stock concentration of 1 mg/ml, aliquoted and stored at -80° C. Stock solution of LPS at 10 ug/ml is prepared using sterile D-PBS, followed by filtering via 0.22 µm filter membrane, aliquoting and storing in -20° C. LPS is applied into the cell medium at a final concentration of 100 ng/ml. Poly I:C (Sigma, P1530) was first dissolved in sterile, molecular grade water to the concentration of 10 mg/ml (following the manufacturer’s instructions). This stock solution was further diluted to the concentration of 1 mg/ml in sterile PBS, and the aliquots stored in -20 °C.

LPS-injected mice = assay: Sucrose preference test in the LPS-induced model of depression; assay type: in vivo; details: Example 9; male C57BL/6, i.p. 1 h before LPS 330 µg/kg; mg/kg: CBD 30; CBDA 1 or 5; BCP 50; kaempferol 30; CBD 30 plus THC 10; CBD 30 plus kaempferol 30
Source text: In a preliminary screening experiment, subjects were 4-6 months-old male C57BL/6 (Jackson Laboratories, USA). Animals were housed 2-3/cage, kept in an air-conditioned room (23+°C) and given ad libitum access to food and water. The mice were kept in a reversed light/dark cycle, with lights off from 7 a.m. to 7 p.m. All experiments were approved by the Hebrew University of Jerusalem Ethics Committee on Animal Care and Use. In preparation for the Sucrose Preference Test, mice were habituated 2-3 times to sucrose drinking, by exposing them overnight to two graduated tubes, one containing water and the other containing sucrose solution (1%, w/v). Water and sucrose consumption were measured, and sucrose preference was computed by dividing the amount of sucrose consumed by drinking (ml sucrose) by the total drinking volume (ml of sucrose + water). One day later, the weight of the mice and the food in their cages was weighed for later analysis of food consumption and body weight changes. Groups of mice were injected intraperitoneally (i.p.) with either vehicle (cremophor, ethanol and PBS, 1:1:18 (v/v/v)) or a cannabinoid-based formulation (by itself or with another cannabinoid, or a terpene or a flavonoid). One hour later, each of these groups was injected with LPS (330 µg/kg). All injections were administered at a dose of 10 ml/kg. Four hours following the LPS injection, mice were tested in the Open-Field Test. In this test, the measured locomotor activity reflects not only motor capacity, but particularly the innate motivation for spatial exploration (which increases the distance travelled) and the anxiety level (which reduces the distance travelled, in general, and particularly the distance and time spent in the center of the open field). Each subject was placed near one of the walls of a white 50 X 50 cm^2 arena with 40 cm high walls. The distance travelled (cm), the velocity of the movement (cm/second), the time spent (seconds), distance travelled (cm) in the center area of the arena, as well as the number of entries from the perimeter area into the center of the arena were automatically measured over a 4-minute period, using EthoVision XT video tracking system and software (Noldus, The Netherlands). Twenty-four hours after the LPS injection, mice were tested in the Social Exploration Test. […] Social exploration, defined as the time of near contact between the nose of the subject and the juvenile in the small cage was recorded for 4 min, using computerized in-house software. Sucrose preference was assessed, as described above, between 8 to 27 hr post LPS injection. Body weight and weight of the food were measured two hours before the LPS injection, and again after 24 hours, and the change in body weight and food consumption were calculated. […]

[1] = Example 4, by itself at 1, 2.5 and 5 µM

For C=C(C)[C@@H]1CCC(C)=C[C@H]1c1c(O)cc(CCCCC)cc1O [CBD, cannabidiol], the “levels of TNFα compared to cultures treated with vehicle and LPS” value (BV2 microglial cells) was “reduced”, the “release of TNFα” value (BV2 microglial cells; Example 3, 10 µM (not 1, 2.5 or 5 µM)) was “significantly inhibited” and the “release of TNFα vs LPS-activated cultures treated with vehicle” value (BV2 microglial cells; [1]) was “no effects”. The “TNFα secretion from LPS activated microglial cells” value (BV2 microglial cells; Example 5, CBD 5 µM alone (p<0.05)) was “decreased the TNFα secretion”, the “release of TNFα vs LPS-activated cultures treated with vehicle” value (BV2 microglial cells; Example 5, by themselves, CBD 1 and 2.5 µM, quercetin 1, 2.5 and 5 µM) was “did not affect” and the “release of TNFα vs LPS-activated cultures treated with vehicle” value (BV2 microglial cells; Example 6, by itself, CBD 1, 2.5 and 5 µM, CBDV 1, 2.5, 5 and 10 µM) was “no concentration of either CBD or CBDV by itself affected release of TNFα”. For the same compound, the “inhibition of LPS-induced TNFα secretion” value (BV2 microglial cells; Example 7, by themselves) was “did not produce significant inhibition”, the “LPS-induced TNFα release” value (BV2 microglial cells; Example 25, LPS 100 ng/ml, CannA 5 and 10 µM, CBD and CannB only at 10 µM, CannC 1-10 µM, extract concentration as dominant cannabinoid) was “significantly inhibited” and the IC50 (BV2 microglial cells; BV-2, read-out: CBD IC50, LPS-induced TNFα release, Example 4, addition of 1 µM kaempferol) was 2.3 µM. It also gave an IC50 (BV2 microglial cells; BV-2, read-out: CBD IC50, LPS-induced TNFα release, Example 4, addition of 2.5 µM kaempferol) of 1.3 µM, an IC50 (BV2 microglial cells; BV-2, read-out: CBD IC50, LPS-induced TNFα release, Example 4, addition of 5 µM kaempferol) of 0.8 µM and an IC50 (BV2 microglial cells; BV-2, read-out: CBD IC50, LPS-induced TNFα release, Example 5, addition of 1 µM quercetin) of 3.8 µM. For the same compound, the IC50 (BV2 microglial cells; BV-2, read-out: CBD IC50, LPS-induced TNFα release, Example 5, addition of 2.5 µM quercetin) was 3.2 µM, the IC50 (BV2 microglial cells; BV-2, read-out: CBD IC50, LPS-induced TNFα release, Example 5, addition of 5 µM quercetin) was 1.8 µM and the IC50 (BV2 microglial cells; BV-2, read-out: CBD IC50, LPS-induced TNFα release, Example 6, addition of 1 µM CBDV) was 3.4 µM. For the same compound, the IC50 (BV2 microglial cells; BV-2, read-out: CBD IC50, LPS-induced TNFα release, Example 6, addition of 2.5 µM CBDV) was 4.8 µM, the IC50 (BV2 microglial cells; BV-2, read-out: CBD IC50, LPS-induced TNFα release, Example 6, addition of 5 µM CBDV) was 2.7 µM and the IC50 (BV2 microglial cells; BV-2, read-out: CBD IC50, LPS-induced TNFα release, Example 6, addition of 10 µM CBDV) was 2.4 µM. It also gave an IC50 (BV2 microglial cells; BV-2, read-out: IC50 for TNFα inhibition) of 7.2 µM, an IC50 (BV2 microglial cells; BV-2, read-out: IC50 for inhibiting LPS-induced TNFα release) of 5.3 µM and an IC50 (BV2 microglial cells; BV-2, read-out: IC50 for inhibiting LPS-induced TNFα release, Example 5 (FIG. 6C), by itself) of 6.2 µM. For the same compound, the IC50 (BV2 microglial cells; BV-2, read-out: IC50 for inhibiting LPS-induced TNFα release, Example 6 (FIG. 7C), by itself) was 5.4 µM and the “sucrose preference compared with vehicle-treated groups” value (LPS-injected mice) was “significantly increased sucrose preference”.

In the case of C=C(C)[C@@H]1CCC(C)=C[C@H]1c1c(O)cc(CCCCC)c(C(=O)O)c1O [CBDA, Cannabidiolic acid], the “effect on lipopolysaccharide-induced TNFα secretion” value (BV2 microglial cells; THC 0.1, 0.5 and 1 µM, CBDA 0.2, 1 and 2 µM, CBC 0.1, 1 and 2 µM, α-pinene, β-pinene, limonene 25 or 100 µM) is reported as “no effect” and the “sucrose preference compared with vehicle-treated groups” value (LPS-injected mice) is reported as “significantly increased sucrose preference”.

O=c1c(O)c(-c2ccc(O)cc2)oc2cc(O)cc(O)c12 [kaempferol] was tested, and the “levels of TNFα compared to cultures treated with vehicle and LPS” value (BV2 microglial cells) was “reduced”, the “release of TNFα vs LPS-activated cultures treated with vehicle” value (BV2 microglial cells; [1]) was “no effects” and the IC50 (BV2 microglial cells; BV-2, Example 4 (FIG. 5C), by itself, read-out: IC50 for inhibiting LPS-induced TNFα release) was 9.8 µM. For the same compound, the “sucrose preference compared with vehicle-treated groups” value (LPS-injected mice) was “significantly increased sucrose preference”.
